Data as given in ChEMBL document CHEMBL5518220, “The Discovery of 7-Isopropoxy-2-(1-methyl-2-oxabicyclo[2.1.1]hexan-4-yl)-N-(6-methylpyrazolo[1,5-a]pyrimidin-3-yl)imidazo[1,2-a]pyrimidine-6-carboxamide (BIO-7488), a Potent, Selective, and CNS-Penetrant IRAK4 Inhibitor for the Treatment of Ischemic Stroke” (J Med Chem, 2024).
Blank lines part the entries; values can stand above or below the compound they belong to.

Key:
[1] = Drug metabolism in male Sprague-Dawley rat liver microsomes assessed as oxidative metabolism at methyl-THF moiety at 10 uM incubated for 60 mins by LC-MS/MS analysis; assay type: ADME, Microsome; settings: 1 h
MDR1 (P-gp) = assay: Efflux ratio of apparent permeability across basolateral to apical side over apical to basolateral side in MDCK-MDR1 cells at 1 uM incubated for 120 mins by LC-MS/MS analysis; assay type: ADME, cell-based, Canis lupus familiaris; settings: dog
[2] = Metabolic stability in rat liver microsomes assessed as intrinsic clearance; assay type: ADME, Microsome; settings: read-out: CLH
[3] = Metabolic stability in human liver microsomes assessed as intrinsic clearance; assay type: ADME, Microsome; settings: read-out: CLH
[4] = Unbound brain-to-plasma concentration ratio in iv dosed rat measured at 4 to 24 hrs by LC-MS/MS analysis; assay type: ADME, organism-based; settings: brain and plasma, time 4-24 hrs, read-out: K(p,uu,brain)
[5] = target: T1, Interleukin-1 receptor-associated kinase 4 (Homo sapiens, UniProt Q9NWZ3)
T1 sequence (Q9NWZ3 whole entry): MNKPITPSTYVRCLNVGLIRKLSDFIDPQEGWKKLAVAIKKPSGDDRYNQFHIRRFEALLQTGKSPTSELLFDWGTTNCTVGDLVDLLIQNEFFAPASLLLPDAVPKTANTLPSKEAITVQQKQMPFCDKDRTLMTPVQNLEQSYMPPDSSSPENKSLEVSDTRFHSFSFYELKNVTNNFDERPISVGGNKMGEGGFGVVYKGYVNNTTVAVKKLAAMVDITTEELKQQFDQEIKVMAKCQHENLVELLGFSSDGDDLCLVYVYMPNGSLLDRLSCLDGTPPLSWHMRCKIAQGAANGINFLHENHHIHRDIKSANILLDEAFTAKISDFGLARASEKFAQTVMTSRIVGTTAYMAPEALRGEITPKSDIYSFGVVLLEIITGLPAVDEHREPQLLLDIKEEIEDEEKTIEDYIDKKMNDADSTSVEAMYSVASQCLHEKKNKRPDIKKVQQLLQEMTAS

[6] = Drug metabolism in human liver microsomes assessed as oxidative metabolism at methyl-THF moiety at 10 uM incubated for 60 mins by LC-MS/MS analysis; assay type: ADME, Microsome; settings: 1 h
[7] = Tmax in cynomolgus monkey at 1 mg/kg, po by LC-MS/MS analysis; assay type: ADME, organism-based, Macaca fascicularis; settings: in vivo
[8] = Half life in rat at 1 mg/kg, iv by LC-MS/MS analysis; assay type: ADME, organism-based; settings: in vivo
[9] = Oral bioavailability in dog at 1 mg/kg by LC-MS/MS analysis; assay type: ADME, organism-based, Canis lupus familiaris; settings: in vivo
[10] = Lipophilicity, logD of compound in n-octanol and aqueous buffer at pH 7.4 by RP-HPLC method; assay type: physicochemical
[11] = Oral bioavailability in rat at 1 mg/kg by LC-MS/MS analysis; assay type: ADME, organism-based; settings: in vivo
[12] = Inhibition of […] induced IL-1beta production in human whole blood preincubated for 1 hr followed by R848 stimulation and measured after 4 hrs by MSD assay; assay type: functional, tissue-based
[13] = Oral bioavailability in mouse at 1 mg/kg by LC-MS/MS analysis; assay type: ADME, organism-based; settings: in vivo
[14] = Volume of distribution at steady state in rat at 1 mg/kg, iv by LC-MS/MS analysis; assay type: ADME, organism-based; settings: in vivo, read-out: Vdss
[15] = Tmax in dog at 1 mg/kg, po by LC-MS/MS analysis; assay type: ADME, organism-based, Canis lupus familiaris; settings: in vivo
[16] = Clearance in mouse at 1 mg/kg, iv by LC-MS/MS analysis; assay type: ADME, organism-based; settings: in vivo
[17] = Unbound clearance in mouse at 1 mg/kg, iv by LC-MS/MS analysis; assay type: ADME, organism-based; settings: in vivo
[18] = Oral bioavailability in cynomolgus monkey at 1 mg/kg by LC-MS/MS analysis; assay type: ADME, organism-based, Macaca fascicularis; settings: in vivo
[19] = AUCinfinity in cynomolgus monkey at 1 mg/kg, iv by LC-MS/MS analysis; assay type: ADME, organism-based, Macaca fascicularis; settings: in vivo
[20] = AUCinfinity in dog at 1 mg/kg, iv by LC-MS/MS analysis; assay type: ADME, organism-based, Canis lupus familiaris; settings: in vivo
[21] = Clearance in rat at 1 mg/kg, iv by LC-MS/MS analysis; assay type: ADME, organism-based; settings: in vivo
[22] = Clearance in cynomolgus monkey at 1 mg/kg, iv by LC-MS/MS analysis; assay type: ADME, organism-based, Macaca fascicularis; settings: in vivo
[23] = AUCinfinity in mouse at 1 mg/kg, iv by LC-MS/MS analysis; assay type: ADME, organism-based; settings: in vivo
[24] = Tmax in mouse at 1 mg/kg, po by LC-MS/MS analysis; assay type: ADME, organism-based; settings: in vivo
[25] = Unbound clearance in rat at 1 mg/kg, iv by LC-MS/MS analysis; assay type: ADME, organism-based; settings: in vivo
[26] = AUCinfinity in rat at 1 mg/kg, iv by LC-MS/MS analysis; assay type: ADME, organism-based; settings: in vivo
[27] = Unbound clearance in cynomolgus monkey at 1 mg/kg, iv by LC-MS/MS analysis; assay type: ADME, organism-based, Macaca fascicularis; settings: in vivo
[28] = Unbound clearance in dog at 1 mg/kg, iv by LC-MS/MS analysis; assay type: ADME, organism-based, Canis lupus familiaris; settings: in vivo
[29] = Metabolic stability in human hepatocytes assessed as intrinsic clearance; assay type: ADME, cell-based, Hepatocyte; settings: read-out: CLH
[30] = Tmax in rat at 1 mg/kg, po by LC-MS/MS analysis; assay type: ADME, organism-based; settings: in vivo
Mus musculus [31] = assay: Inhibition of LPS-induced IL-1beta production in po dosed female C57BL/6 mouse assessed as reduction in IL-1beta level in plasma administered via oral gavage for 60 mins followed by LPS stimulation at 0.5 mg/kg, ip measured after 90 mins by ELISA; assay type: functional, organism-based
[32] = Free drug level in male C57BL/6 mouse plasma at 10 mg/kg, po qd measured on 3 to 7 days; assay type: ADME, organism-based; settings: in vivo, time 3-7 day
Mus musculus [33] = assay: Inhibition of LPS-induced TNF-alpha production in po dosed female C57BL/6 mouse assessed as reduction in TNF-alpha level in plasma administered via oral gavage for 60 mins followed by LPS stimulation at 0.5 mg/kg, ip measured after 90 mins by ELISA; assay type: functional, organism-based
[34] = Half life in dog at 1 mg/kg, iv by LC-MS/MS analysis; assay type: ADME, organism-based, Canis lupus familiaris; settings: in vivo
[35] = Half life in cynomolgus monkey at 1 mg/kg, iv by LC-MS/MS analysis; assay type: ADME, organism-based, Macaca fascicularis; settings: in vivo
[36] = Half life in mouse at 1 mg/kg, iv by LC-MS/MS analysis; assay type: ADME, organism-based; settings: in vivo
[37] = target: T2, Dual specificity mitogen-activated protein kinase kinase 5 (Homo sapiens) (UniProt Q13163); assay: Binding affinity to MEK5 (unknown origin) at 100 to 1000 nM relative to control; settings: dose 100-1000 nM
T2 sequence (whole entry): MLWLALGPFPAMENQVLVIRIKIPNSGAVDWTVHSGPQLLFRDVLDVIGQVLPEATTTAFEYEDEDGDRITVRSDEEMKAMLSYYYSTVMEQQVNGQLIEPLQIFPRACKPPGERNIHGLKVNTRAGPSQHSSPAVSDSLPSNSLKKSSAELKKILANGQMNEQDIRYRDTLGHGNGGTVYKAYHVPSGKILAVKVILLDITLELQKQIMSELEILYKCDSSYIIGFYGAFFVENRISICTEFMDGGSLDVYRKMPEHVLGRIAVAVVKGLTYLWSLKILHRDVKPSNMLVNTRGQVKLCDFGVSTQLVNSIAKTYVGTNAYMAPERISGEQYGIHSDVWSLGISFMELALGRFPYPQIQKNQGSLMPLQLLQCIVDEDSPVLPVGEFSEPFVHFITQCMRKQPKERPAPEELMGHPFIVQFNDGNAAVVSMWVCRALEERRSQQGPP

Mus musculus [38] = assay: Inhibition of LPS-induced IL-6 production in po dosed female C57BL/6 mouse assessed as reduction in IL-6 level in plasma administered via oral gavage for 60 mins followed by LPS stimulation at 0.5 mg/kg, ip measured after 90 mins by ELISA; assay type: functional, organism-based
[39] = Clearance in dog at 1 mg/kg, iv by LC-MS/MS analysis; assay type: ADME, organism-based, Canis lupus familiaris; settings: in vivo
[40] = Volume of distribution at steady state in mouse at 1 mg/kg, iv by LC-MS/MS analysis; assay type: ADME, organism-based; settings: in vivo, read-out: Vdss
[41] = Volume of distribution at steady state in dog at 1 mg/kg, iv by LC-MS/MS analysis; assay type: ADME, organism-based, Canis lupus familiaris; settings: in vivo, read-out: Vdss
[42] = Volume of distribution at steady state in cynomolgus monkey at 1 mg/kg, iv by LC-MS/MS analysis; assay type: ADME, organism-based, Macaca fascicularis; settings: in vivo, read-out: Vdss

Drug metabolism [1]: Metabolite_Detected | efflux ratio at 2 h, 1 µM (MDR1 (P-gp)): 1.5 | CLint scaled [2]: 171 mL/min/kg | CLint scaled [3]: 62 mL/min/kg | Kp uu [4]: 0.9 | IC50 [5]: 0.9 nM | Drug metabolism [6]: Metabolite_Detected
Compound: CCOc1cc2nc(C[C@@H]3CCOC3)cn2cc1NC(=O)c1cccc(C(F)F)n1

Compound: Cc1cnc2c(NC(=O)c3cn4cc(C56COC(C)(C5)C6)nc4nc3OC(C)C)cnn2c1
Tmax [7]: 2 h | half-life [8]: 12 h | bioavailability [9]: 96% | logD [10]: 2.9 | bioavailability [11]: 91% | IC50 ([12]; Homo sapiens, Blood): 200 nM | fIC50 ([12]; time 5 hrs): 13 nM | bioavailability [13]: 98% | Vd [14]: 2.2 L/kg | Tmax [15]: 2.6 h | clearance [16]: 1.8 mL/min/kg | CL free [17]: 19 mL/min/kg | bioavailability [18]: 95% | AUC(0-inf) [19]: 6440 ng·h/mL | AUC(0-inf) [20]: 3190 ng·h/mL | clearance [21]: 2.1 mL/min/kg | clearance [22]: 2.7 mL/min/kg | AUC(0-inf) [23]: 9460 ng·h/mL | Tmax [24]: 1 h | CL free [25]: 30 mL/min/kg | AUC(0-inf) [26]: 6530 ng·h/mL | CLint scaled [3]: < 5 mL/min/kg | CL free [27]: 14 mL/min/kg | CL free [28]: 5.3 mL/min/kg | CLint scaled [29]: 2.5 mL/min/kg | Tmax [30]: 4.7 h | inhibition (Mus musculus [31]): Dose-Dependent Effect | Cp(f) [32]: 10 nM | inhibition (Mus musculus [33]): Dose-Dependent Effect | half-life [34]: 10 h | half-life [35]: 8.3 h | half-life [36]: 5 h | Activity [37]: > 80% | inhibition (Mus musculus [38]): Dose-Dependent Effect | clearance [39]: 3.5 mL/min/kg | Vd [40]: 0.75 L/kg | Vd [41]: 2.8 L/kg | Vd [42]: 1.7 L/kg
